These results are taken from patent publication US20240197708A1, “TREATMENT OF PRODROMAL HUNTINGTON DISEASE” (Prilenia Neurotherapeutics Ltd., priority 2021, published 2024).

The subject of one assay is prodromal HD subjects. As to conditions: 45 mg bid. Here is the method:
The efficacy of pridopidine for treating prodromal HD is evaluated in a randomized, double-blind, placebo-controlled trial.

The next assay concerns early-stage HD patients. The conditions noted are these: disclosed in U.S. Pat. Nos. 10,322,119 and 11,207,310; cited from earlier work.
[1] abbreviates: CSF and/or plasma, 52 weeks, vs placebo.

Regarding `CCCN1CCC(c2cccc(S(C)(=O)=O)c2)CC1` [Pridopidine, 4-[3-(methylsulfonyl)phenyl]-1-propyl-piperidine], in the assay on prodromal HD subjects (52 weeks, vs placebo), the “DMN and functional connectivity” value is listed as “maintenance of or less worsening”; the PBA-s apathy score result is listed as “improvement or less worsening compared to placebo”; the PBA-s total score entry is “improvement or less worsening compared to placebo”; the “cognitive assessments by the HD-CAB battery of tests” value is listed as “improves or maintains or show less worsening compared to placebo”. In addition, in the assay with prodromal HD subjects (52 weeks, vs placebo), the “cognitive assessments by the SDMT” value is “improves, maintains or shows less decline”; the cortical thickness result is “no decrease or less decrease compared to placebo”; the “motor measure Q-Motor finger tapping” value is on record as “maintenance, improvement or less decline compared to placebo”; the “motor measure TMS” value is on record as “maintenance, improvement or less decline compared to placebo”. Besides, in the assay with prodromal HD subjects (52 weeks, vs placebo), the total brain volume entry was “no decrease or less decrease compared to placebo”; the ventricular volume entry was “decrease or maintenance of ventricular volume or a smaller increase in ventricular volume compared to placebo”; the “volume of the striatal structures caudate and putamen” value is “no decrease or less decrease compared to placebo”. Also, in the assay on prodromal HD subjects (setting [1]), the “level of fluid biomarker NfL” value is recorded as “reduction or maintenance”, the “level of fluid biomarker phospho-tau” value is listed as “reduction or maintenance” and the “level of fluid biomarker proenkephalin” value is “reduction or maintenance”. For the same molecule, in the assay with prodromal HD subjects (over the course of the trial (52 weeks), vs placebo group), the “progression to manifest HD” value is on record as “less participants in the pridopidine group progressed to manifest HD compared to the placebo group”. Also, the functional capacity entry with early-stage HD patients is listed as “maintains, improves or lessens the decline of functional capacity”.
